What was measured:
HBV = HBV replication, assembly, secretion in HepG2.2.15 cells (HBsAg/HBeAg ELISA, HBV DNA real-time PCR); assay type: cell-based, Hepatitis B virus
Method: HepG2.2.15 cells were cultured with different concentrations of Antrodia camphorata fruit body extracts for 48 h, then the culture medium was collected to measure HBV HBsAg by ELISA. HepG2, containing no HBV, was used as a negative control (NC). The results are expressed as a percentage of the non-drug-treated positive control (NT) and are shown as mean±SD for three independent experiments. *, P<0.05; **, P<0.01; ***, P<0.001.
HepG2.2.15 cells were cultured with different concentrations of Antrodia camphorata fruit body extracts for 48 h, then the culture medium was collected to measure HBV HBeAg by ELISA. HepG2, containing no HBV, was used as a negative control (NC). The results are expressed as a percentage of the non-drug-treated positive control (NT) and are shown as mean±SD for three independent experiments. *, P<0.05; **, P<0.01; ***, P<0.001.
HepG2.2.15 cells were cultured with different concentrations of Antrodia camphorata fruit body extracts for 48 h, then the culture medium was collected to measure HBV DNA by real-time PCR. Plasmid p1.3HBcl, which contains a 1.3-fold HBV genome (ayw subtype (Galibert et al., 1979)), was used as standard in parallel PCR reactions, while HepG2, containing no HBV, was used as a negative control (NC). The results are expressed as a percentage of the non-drug-treated positive control (NT) and are shown as mean±SD for three independent experiments. *, P<0.05; **, P<0.01; ***, P<0.001.
Continuous HBV proliferation can be achieved in HepG2.2.15 cells (RRID:CVCL_L855) stably transfected with the HBV genome of the adw2 subtype. HepG2.2.15 cells are used because of the unlimited supply and constant quality and were maintained in Dulbecco's modified Eagle medium (DMEM; Invitrogen) supplemented with 10% heat-inactivated fetal bovine serum (FBS; Thermo) plus 100 units of penicillin and 100 µg of streptomycin per ml (both from Invitrogen).
The culture medium from drug-treated HepG2.2.15 cells is clarified by centrifugation at 1,000×g at 4° C. for 10 min, and then the supernatant is layered on top of a 20% sucrose cushion (20% sucrose, 20 mM HEPES, pH 7.4, 0.1% bovine serum albumin [BSA]) and centrifuged at 197,000×g for 3 h at 4° C. to pellet the HBV particles, which are then concentrated 100 fold to detect HBV DNA.
Total DNA is extracted with a Genomic DNA isolation kit (Nexttec Biotechnologie, Germany). Total RNA is isolated from cultured cells using TRIzol® reagent (Invitrogen). Reverse transcription is performed with the RNA templates, AMV reverse transcriptase (Roche), and oligo-dT primer. The products are subjected to real-time PCR with primer sets of specific genes and SYBR Green PCR Master Mix (Bio-Rad). The primer sets used for HBV core, HBsAg, cccDNA and GAPDH are described. The results are analyzed with the iCycler iQ real-time PCR detection system (Bio-Rad). Plasmid p1.3HBcl is prepared at 10-fold dilutions (2*10^4-2*10^9 […] to generate a standard curve in parallel PCR reactions.
To test whether Antrodia camphorata fruit body extracts had any effect on HBV genome replication, assembly, or secretion, HepG2.2.15 cells, which stably transfected with HBV genome, were used to incubate with four Antrodia camphorata fruit body extracts for 48 hours, then HBsAg, HBeAg and HBV DNA collected from medium were measured by ELISA and real-time PCR.

HSV-1 virions = experiment: Direct effect on infectivity of purified HSV-1 virions, plaque assay; assay type: cell-based, Herpes simplex virus type 1; details: purified virions incubated directly with drug 1 hour at 37° C., dose-dependent
Method: Purified HSV-1 was incubated directly with media containing various concentrations of each Antrodia camphorata extracts for 1 hour at 37° C. The viral titers were then examined in oral epithelial cells (OC3) using the plaque assay. The results shown are the mean±SEM from at least three independent experiments. Statistical differences are shown by different lowercase letters (analysis of variance, Tukey, α=0.05).
The oral epithelial cell line (OC3) was used to determine the possible effects of Antrodia camphorata extracts on oral epithelial cells during HSV-1 infection. Cell monolayers were treated as illustrated in FIG. 4 (please also see details in the Materials and Methods section). Three experimental conditions, including no-treatment, pre-treatment and post-treatment were performed. Whether these Antrodia camphorata extracts have effects before or after viral infection were examined. The effects of Antrodia camphorata extracts on viral propagation (viral yields) in infected oral epithelial cells were examined. At 19-20 h post infection, viral yields in the supernatants were determined using the plaque assay. Viability of treated cells was also determined using the MTT assay for the mitochondrial dehydrogenase activity. Moreover, purified HSV-1 virions were directly treated with Antrodia camphorata extracts to examine whether Antrodia camphorata extracts exert anti-HSV-1 activity directly on virus particles before viral entry.
Oral epithelial cells (OC3 cells) were infected with HSV-1 at multiplicity of infection (MOI) of 5 or mock infected for 1 h at 37° C. for viral entry to occur. Unbound viruses were removed. Infected cells were then overlaid with appropriate media and incubated at 37° C. The Antrodia camphorata fruit body extracts used were A2 (Antrodia camphorata extracts), A3 (dehydrosulphurenic acid), A4 (antcin K), A5 (versisponic acid), and A6 (dehydroeburicoic acid). […]
Viral titers in the supernatants after infection were determined using the plaque assay. […] Plaques were observed and counted under an inverted microscope. […]

[1] = system: HuS-E/2 immortalized human primary hepatocytes cells; experiment: MTT cell viability, HuS-E/2 cells; details: 48 h, 50 μg/ml
HepG2.2.15 cells = experiment: MTT cell viability, HepG2.2.15 cells; details: 48 h, 50 μg/ml
[2] = 48 h, at 20 μg/ml and 50 μg/ml, percentage of non-drug-treated control

Compound: C=C(CC[C@@H](C)[C@H]1CC[C@H]2C3=C(C(=O)C[C@]12C)[C@@]1(C)CCC(O)[C@](C)(O)C1CC3O)C(C)C(=O)O (stereo partly shown) [A4, antcin K]
- HBV replication, the assembly or release of viral particles (HBV): significantly inhibits
- HBV DNA repressed to (HBV; 48 h, 50 μg/ml, percentage of non-drug-treated control): 55%
- level of HBeAg in the culture supernatant, decreased to (HBV; [2]): 50-60%
- level of HBsAg in the culture supernatant, decreased to (HBV; [2]): 50-60%
- HBsAg protein levels, dose dependence (HBV; FIG. 2A): marked dose-dependent reduction
- core protein levels, dose dependence (HBV; FIG. 2B): marked dose-dependent reduction
- HBV DNA in particles, dose dependence (HBV; FIG. 2C): marked dose-dependent reduction
- viral infectivity of treated HSV-1 virions (HSV-1 virions): statistically significantly inhibited
- toxic effect (MTT cell viability) [1]: no toxic effect
- toxic effect (MTT cell viability) (HepG2.2.15 cells): little or no toxic effect
